How the values were obtained:
[1] = biological target: T1, full-length MALT1 protein (Strep-MALT1(1-824)-His) (Homo sapiens, UniProt Q9UDY8); experiment: MALT1 Biochemical Protease Assay; details: 10 nM FL MALT1, 200 μM Ac-LRSR-AMC, 50 min pre-incubation, 4 h at RT; read-out: MALT1_Biochemical activity (Ac-LRSR-amc) IC50
T1 construct: full-length MALT1 protein (Strep-MALT1(1-824)-His) purified from baculovirus-infected insect cells; Strep (N); His (C); made in house; host or cells: baculovirus-infected insect cells
T1 sequence (Q9UDY8 1-824): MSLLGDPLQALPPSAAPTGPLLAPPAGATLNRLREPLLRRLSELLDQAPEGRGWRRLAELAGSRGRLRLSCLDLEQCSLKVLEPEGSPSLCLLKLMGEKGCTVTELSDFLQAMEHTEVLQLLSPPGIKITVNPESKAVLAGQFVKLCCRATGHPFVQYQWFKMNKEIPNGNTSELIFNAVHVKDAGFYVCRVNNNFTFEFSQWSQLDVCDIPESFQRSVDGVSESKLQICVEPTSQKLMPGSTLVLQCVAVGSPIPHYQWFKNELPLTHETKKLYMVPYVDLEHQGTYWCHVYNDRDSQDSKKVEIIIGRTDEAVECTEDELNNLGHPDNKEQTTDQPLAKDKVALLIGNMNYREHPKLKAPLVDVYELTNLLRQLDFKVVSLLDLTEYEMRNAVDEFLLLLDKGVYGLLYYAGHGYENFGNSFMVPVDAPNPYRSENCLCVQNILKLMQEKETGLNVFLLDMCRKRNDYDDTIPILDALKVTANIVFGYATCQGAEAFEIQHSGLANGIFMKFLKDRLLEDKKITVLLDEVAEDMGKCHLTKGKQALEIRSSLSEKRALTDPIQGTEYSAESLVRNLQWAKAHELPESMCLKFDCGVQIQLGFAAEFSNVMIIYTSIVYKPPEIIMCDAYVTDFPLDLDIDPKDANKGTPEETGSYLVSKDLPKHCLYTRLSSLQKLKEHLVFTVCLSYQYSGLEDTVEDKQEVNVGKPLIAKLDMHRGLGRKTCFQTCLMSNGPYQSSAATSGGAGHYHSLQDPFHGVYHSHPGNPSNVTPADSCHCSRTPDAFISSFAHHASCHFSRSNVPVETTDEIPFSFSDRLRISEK
Protocol: MALT1 protease activity was assessed in an in vitro assay using a tetrapeptide as substrate and full-length MALT1 protein (Strep-MALT1(1-824)-His) purified from baculovirus-infected insect cells. The tetrapeptide LRSR is coupled to AMC (7-amino-4-methylcoumarin) and provides a quenched, fluorescent substrate for the MALT1 protease (SM Biochemicals). Cleavage of AMC from the Arginine residue results in an increase in coumarin fluorescence measured at 460 nm (excitation 355 nm). The final assay buffer consisted of 10 nM FL MALT1 protein, 200 μM Ac-LRSR-AMC, 50 mM Tris pH 7.5, 0.6 M Citrate, 1 mM DTT, 1 mM EDTA, 0.05% BSA and 1.5% DMSO. Test compounds were spotted at 50 nL in 100% DMSO per well of a black 384-Proxiplate (Perkin Elmer). Test compound concentrations ranged from 30 μM to 0.5 nM using 11 dilution steps (1:3). Background signal was measured from control wells containing assay buffer without enzyme which functions as low control (LC). High control (HC) values were generated using the reaction with enzyme but no compound treatment. Compounds were pre-incubated with MALT1 enzyme for 50 minutes at RT. Substrate was added subsequently and fluorescence was measured in Labsystems fluoroskan at excitation 355 nm and emission 460 nm to determine time 0. The reaction was subsequently incubated for 4 h at RT and fluorescence was measured. For IC50 calculations, timepoint 0 was subtracted from the 4 h timepoint to correct for any potential autofluorescence of the compounds. The enzyme reaction was linear during the 4 h incubation period. Characterization of the substrate Ac-LRSR-AMC determined the Michaelis constant KM at 200 μM.
IC50 values were calculated using the following formula (Z prime should be >0.5): […]
A best-fit curve was fitted by a minimum sum of squares method to the plot of % Controlmin vs. compound concentration. From this an IC50 value (inhibitory concentration causing 50% inhibition) can be obtained. An estimate of the slope of the plot in terms of the Hill coefficient was also obtained.
Used in “Lexis Dose Response Curve Fitting” Version 1.0.

[2] = tested on: secretion of IL10 by OCI-LY3 ABC-DLBCL cells; experiment: Human IL10 Mesoscale assay (OCI-LY3); type: cell-based; details: 24 h incubation, IL10 in supernatant
Protocol: (§1) NFKB signaling regulates the secretion of multiple cytokines, including IL6 and IL10. Secretion of the cytokines IL6 and IL10 by OCI-LY3 ABC-DLBCL cells was measured using a mesoscale assay. Inhibition of NFKB signaling by MALT1 inhibitors results in a decrease of IL6/10 secretion.
(§2) OCI-LY3 cells were propagated in RPMI-1640 (Sigma Aldrich) supplemented with 10% fetal bovine serum (HyClone), 1 mM sodium pyruvate (Invitrogen), 2 mM L-glutamine (Sigma Aldrich) and 1% PenStrep (Sigma Aldrich). Cell passage number should not exceed 30. Cells should be kept between 0.5-2.5 million cells per mL during culturing and cells should be supplemented every 2-3 days with fresh 50 μM beta-mercaptoethanol. No beta-mercaptoethanol was used during the mesoscale assay.
(§3) For the Mesoscale assay, 100,000 OCI-LY3 cells were seeded per well into black-colored 96-well plates with clear bottom (Corning #3904) and test compounds were added in 9 dilution steps (1:2) ranging from 15 μM to 58.6 nM (final DMSO concentration 0.3%). DMSO control wells were used to determine the maximum signal (High Control (HC)). Treatment with the BTK inhibitor RN486 in a dose range from 30 nM to […] (9 dilutions of 1:2) served as a positive control for NFKB pathway inhibition and was used to determine the maximum inhibition (Low Control (LC)). Compounds and cells were incubated for 24 h at 37° C. and 5% CO2 (assay volume is 150 μL). After 24 h of incubation 50 μL of the supernatant was transferred to a MSD plate (V-Plex Proinflammation Panel 1 (human) kit, Mesoscale (MSD)) and incubated for 2 h with vigorous shaking (600 rpm) at room temperature. Following incubation, plates were washed 3× with PBS+0.05% Tween-20 and 25 μL detection antibody solution (IL6 & IL10 antibodies in diluent 3 (MSD)) was added per well followed by 2 h of incubation with vigorous shaking (600 rpm) at room temperature. After 3× washes with PBS+0.05% Tween-20, plates were incubated with 150 μL 2× Read Buffer T and read on SECTOR imager.

[3] = tested on: secretion of IL6 by OCI-LY3 ABC-DLBCL cells; experiment: Human IL6 Mesoscale assay (OCI-LY3); type: cell-based; details: 24 h incubation, IL6 in supernatant
Protocol: as §1, §2, §3

SMILES	IC50 [1]	IC50 ([2]; Homo sapiens)	IC50 ([3]; Homo sapiens)	IC50 [2]	IC50 [3]
CO[C@H](c1c(NC(=O)Nc2cnc(-n3nccn3)c(C(F)(F)F)c2)cnc(C)c1Cl)C1CC1 (single isomer, unassigned) [Co. 142]	790 nM	780 nM	1200 nM	–	–
CO[C@H](C)c1c(NC(=O)Nc2ccnc(C(F)(F)F)c2)cnc(C)c1C#N (single isomer, unassigned) [Co. 145]	290 nM	170 nM	260 nM	–	–
COc1cncc(NC(=O)Nc2cc(C(F)(F)F)c(-n3nccn3)nc2OC)c1[C@@H](C)OC (single isomer, unassigned) [Co. 146]	270 nM	160 nM	320 nM	–	–
CO[C@@H](C)c1c(NC(=O)Nc2cnc(-n3nccn3)c(C(F)(F)F)c2)cnc(C(F)F)c1Br (single isomer, unassigned) [Co. 147]	560 nM	660 nM	850 nM	–	–
CO[C@@H](C)c1c(NC(=O)Nc2ccnc(C(F)(F)F)c2)cnc(C)c1C#N (single isomer, unassigned) [Co. 149]	2880 nM	1320 nM	1910 nM	–	–
CNc1ncc(NC(=O)Nc2cnc(-n3nccn3)c(Cl)c2)c([C@H](C)OC)c1Br (single isomer, unassigned) [Co. 153]	25000 nM	8710 nM	11800 nM	–	–
CNc1ncc(NC(=O)Nc2cnc(-n3nccn3)c(Cl)c2)c([C@@H](C)OC)c1Br (single isomer, unassigned) [Co. 154]	2690 nM	710 nM	1100 nM	–	–
COC(C)c1c(Cl)cncc1NC(=O)Nc1cnc(-n2nccn2)c(Cl)c1 (stereo not drawn) [Co. 22]	290 nM	120 nM	160 nM	–	–
CO[C@@H](C)c1c(Cl)cncc1NC(=O)Nc1cnc(-n2nccn2)c(Cl)c1 [Co. 24]	4570 nM	–	–	3980 nM	5620 nM
COC(C)c1c(C#N)cncc1NC(=O)Nc1cnc(-n2nccn2)c(Cl)c1 (stereo not drawn) [Co. 25]	240 nM	–	–	180 nM	220 nM
CO[C@H](C)c1c(C#N)cncc1NC(=O)Nc1cnc(-n2nccn2)c(Cl)c1 [Co. 27]	2100 nM	–	–	1600 nM	2800 nM
CCOC(=O)c1cncc(NC(=O)Nc2cnc(-n3nccn3)c(Cl)c2)c1[C@H](C)OC [Co. 37]	1480 nM	–	–	1660 nM	2750 nM
COc1c(C)ncc(NC(=O)Nc2cnc(-n3nccn3)c(Cl)c2)c1[C@@H](C)OC [Co. 42]	540 nM	–	–	980 nM	1100 nM
COc1c(C)ncc(NC(=O)Nc2cnc(-n3nccn3)c(Cl)c2)c1[C@H](C)OC [Co. 43]	12000 nM	–	–	> 15000 nM	> 15000 nM
CO[C@@H](C)c1c(NC(=O)Nc2cnc(-n3nccn3)c(Cl)c2)cnc(C)c1Br [Co. 46]	580 nM	–	–	850 nM	750 nM
CO[C@H](C)c1c(NC(=O)Nc2cnc(C3CC3)c(C(F)(F)F)c2)cnc(C)c1Br [Co. 52]	1020 nM	–	–	710 nM	1450 nM
CO[C@@H](C)c1c(NC(=O)Nc2cnc(C3CC3)c(C(F)(F)F)c2)cnc(C)c1Br [Co. 53]	> 30200 nM	–	–	> 15000 nM	> 15000 nM
CO[C@@H](C)c1c(NC(=O)Nc2cnc(C3CC3)c(Cl)c2)cnc(C)c1Br [Co. 56]	2510 nM	–	–	9330 nM	> 15000 nM

Compounds with a lower IC50 [1], results first:

IC50 [1]	IC50 ([2]; Homo sapiens)	IC50 ([3]; Homo sapiens)	IC50 [2]	IC50 [3]	SMILES
60 nM	140 nM	130 nM	–	–	COc1cncc(NC(=O)Nc2cc(Cl)c(-n3nccn3)nc2OC)c1[C@H](C)OC (single isomer, unassigned) [Co. 141]
50 nM	50 nM	80 nM	–	–	CO[C@@H](c1c(NC(=O)Nc2cnc(-n3nccn3)c(C(F)(F)F)c2)cnc(C)c1Cl)C1CC1 (single isomer, unassigned) [Co. 143]
40 nM	~45 nM	60 nM	–	–	CO[C@H](C)c1c(NC(=O)Nc2cnc(-n3nccn3)c(C(F)(F)F)c2)cnc(C(F)F)c1Br (single isomer, unassigned) [Co. 144]
30 nM	~60 nM	~60 nM	–	–	CC[C@@H](OC)c1c(NC(=O)Nc2cnc(-n3nccn3)c(C(F)(F)F)c2)cnc(C)c1C#N (single isomer, unassigned) [Co. 148]
100 nM	140 nM	150 nM	–	–	CC[C@H](OC)c1c(NC(=O)Nc2cnc(-n3nccn3)c(C(F)(F)F)c2)cnc(C)c1C#N (single isomer, unassigned) [Co. 150]
170 nM	–	–	170 nM	190 nM	CO[C@H](C)c1c(NC(=O)Nc2cnc(-n3nccn3)c(Cl)c2)cncc1OC(C)C [Co. 9]
110 nM	120 nM	180 nM	–	–	CO[C@H](C)c1c(Cl)cncc1NC(=O)Nc1cnc(-n2nccn2)c(Cl)c1 [Co. 23]
190 nM	–	–	120 nM	260 nM	CO[C@@H](C)c1c(C#N)cncc1NC(=O)Nc1cnc(-n2nccn2)c(Cl)c1 [Co. 26]
230 nM	–	–	140 nM	220 nM	CCOC(=O)c1cncc(NC(=O)Nc2cnc(-n3nccn3)c(Cl)c2)c1[C@@H](C)OC [Co. 36]
50 nM	–	–	80 nM	100 nM	COC(C)c1c(NC(=O)Nc2cnc(-n3nccn3)c(Cl)c2)cnc(C)c1Br (stereo not drawn) [Co. 40]
20 nM	–	–	50 nM	60 nM	CO[C@H](C)c1c(NC(=O)Nc2cnc(-n3nccn3)c(Cl)c2)cnc(C)c1Br [Co. 45]
110 nM	–	–	210 nM	580 nM	CO[C@H](C)c1c(NC(=O)Nc2cnc(C3CC3)c(Cl)c2)cnc(C)c1Br [Co. 55]
